In brackets after ≈: the same amount, converted by molar mass.
Key:
[1] = tested on: S.aureus ATCC 29213; assay type: cell-based, Staphylococcus aureus; conditions: ATCC 29213, 24 h
Method: (§1) Antimicrobial activity of the purified lipopeptoids was determined without replication against a panel of clinically relevant and standard reference bacterial strains according to CLSI macrobroth standards. Stock solutions at 512 µg/mL were prepared in water, with DMSO as needed, and testing was performed in glass test tubes using Muller-Hinton broth and bacteria adjusted to 5 × 10^5 CFU/mL. Bacteria were incubated with the lipopeptoid of interest for 24 hr at 37°C prior to reading.
(§2) The bacteria Staphylococcus aureus ATCC 29213, methicillin-resistant S. aureus ATCC 33592, Staphylococcus epidermidis ATCC 14990, Enterococcus faecalis ATCC 29212, E. faecium ATCC 27270, Streptococcus pneumoniae ATCC 49619, Escherichia coli ATCC 25922, Pseudomonas aeruginosa ATCC 27853, and Klebsiella pneumoniae ATCC 13883 were acquired from the American Type Culture Collection (ATCC) and used as quality controls. The clinical strains methicillin-resistant S. epidermidis (MRSE) CAN-ICU 61589, E. coli CAN-ICU 61714, E. coli CAN-ICU 63074, P. aeruginosa CAN-ICU 62308, Stenotrophomonas maltophilia CAN-ICU 62584, Acinetobacter baumannii CAN-ICU 63169 were obtained from hospitals across Canada as part of the CAN-ICU studies, while methicillin-susceptible S. epidermidis (MSSE) 81388 was obtained from the 2008 CANWARD study.
(§3) After subculturing the relevant bacteria twice from frozen stock, in vitro activities of the antimicrobials were determined by macrobroth dilution methodology in accordance with the Clinical and Laboratory Standards Institute (CLSI) guidelines (3). The MICs were determined using glass test tubes (2 mL/tube) containing doubling antimicrobial dilutions of cation adjusted Mueller-Hinton broth inoculated to achieve a final concentration of approximately 5 x 10^5 CFU/mL, incubated in ambient air for 24 hr prior to reading. Colony counts were performed periodically to confirm inocula. The ATCC organisms […] ATCC 49619, Staphylococcus aureus ATCC 29213, Enterococcus faecalis ATCC 29212, Escherichia coli ATCC 25922, and Pseudomonas aeruginosa ATCC 27853 were used as quality control and to allow easy comparison to previously tested antimicrobials. Each test in this series was performed without replication. In our experience with cationic amphiphiles the results are accurate to within a single doubling.

[2] = tested on: MRSA ATCC 33592; assay type: cell-based, methicillin-resistant S. aureus; conditions: ATCC 33592, 24 h
Method: as §1, §2, §3

[3] = tested on: MSSE 81388 CANWARD 2008; assay type: cell-based, methicillin-susceptible S. epidermidis; conditions: 24 h
Method: as §1, §2, §3

[4] = tested on: MRSE CAN-ICU 61589; assay type: cell-based, methicillin-resistant S. epidermidis; conditions: CAN-ICU 61589, 24 h
Method: as §1, §2, §3

[5] = tested on: E. faecalis ATCC 29212; assay type: cell-based, Enterococcus faecalis; conditions: ATCC 29212, 24 h
Method: as §1, §2, §3

[6] = tested on: S.pneumoniae ATCC 49619; assay type: cell-based, Streptococcus pneumoniae; conditions: ATCC 49619, 24 h
Method: as §1, §2, §3

[7] = tested on: P.aeruginosa ATCC 27853; assay type: cell-based, Pseudomonas aeruginosa; conditions: ATCC 27853, 24 h
Method: as §1, §2, §3

[8] = tested on: P.aeruginosa CAN-ICU 62308; assay type: cell-based, Pseudomonas aeruginosa; conditions: CAN-ICU 62308, 24 h
Method: as §1, §2, §3

[9] = tested on: S. maltophilia CAN-ICU 62584; assay type: cell-based, Stenotrophomonas maltophilia; conditions: CAN-ICU 62584, 24 h
Method: as §1, §2, §3

[10] = tested on: A. baumannii CAN-ICU 63169; assay type: cell-based, Acinetobacter baumannii; conditions: CAN-ICU 63169, 24 h
Method: as §1, §2, §3

[11] = tested on: K.pneumoniae ATCC 13883; assay type: cell-based, Klebsiella pneumoniae; conditions: ATCC 13883, 24 h
Method: as §1, §2, §3

[12] = tested on: ovine erythrocytes; assay: Haemolytic assay; assay type: cell-based, sheep; conditions: ovine erythrocytes in Tris buffered saline, 30 minutes, absorbance of supernatant at 540 nm
Method: Mammalian cell toxicity was determined by measuring lysis of ovine erythrocytes, a standard model for human cell toxicity. Cells were prewashed with Tris buffered saline and then incubated with a variety of lipopeptoid concentrations for 30 minutes. Following centrifugation, lysis was evaluated by testing the absorbance of the solution at 540 nm, with 0.5% NH4OH used as a positive control.
Toxicity to mammalian cells was determined using a sheep red blood cell (erythrocyte) haemolytic assay (4). Erythrocytes were washed and resuspended in Tris buffered saline prior to use, at a concentration of 1.46 - 4.5 x 10^9 cells/mL (on average 3.08 x 10^9 cells/mL). The cell suspension was diluted with varying concentrations of antimicrobials, from 50 μg/mL to 1 mg/mL and incubated for thirty minutes (final erythrocyte concentration 4.08 x 10^8 cells/mL). The samples were centrifuged following treatment and the absorbance of the supernatant was measured at 540 nm. A solution of 0.5% […] was used as a positive control, with normal buffered solution as the negative control. The toxicity was assessed as a function of percent haemolysis.

[13] = tested on: E.coli ATCC 25922; assay type: cell-based, Escherichia coli; conditions: ATCC 25922, 24 h
Method: as §1, §2, §3

[14] = tested on: E.coli CAN-ICU 61714; assay type: cell-based, Escherichia coli; conditions: CAN-ICU 61714, 24 h
Method: as §1, §2, §3

[15] = tested on: E.coli CAN-ICU 63074; assay type: cell-based, Escherichia coli; conditions: CAN-ICU 63074, 24 h
Method: as §1, §2, §3

[16] = tested on: E. faecium ATCC 27270; assay type: cell-based; conditions: ATCC 27270, 24 h
Method: as §1, §2, §3

| SMILES | MIC S.aureus [1] [µg/mL] | MIC S.aureus in the presence of 4% bovine serum albumin [1] [µg/mL] | MIC MRSA [2] [µg/mL] | MIC MRSA in the presence of 4% bovine serum albumin [2] [µg/mL] | MIC MSSE [3] [µg/mL] | MIC MSSE in the presence of 4% bovine serum albumin [3] [µg/mL] | MIC MRSE [4] [µg/mL] | MIC MRSE in the presence of 4% bovine serum albumin [4] [µg/mL] | MIC E. faecalis [5] [µg/mL] | MIC E. faecalis in the presence of 4% bovine serum albumin [5] [µg/mL] | MIC S.pneumoniae [6] [µg/mL] | MIC P.aeruginosa [7] [µg/mL] | MIC P.aeruginosa in the presence of 4% bovine serum albumin [7] [µg/mL] | MIC P.aeruginosa [8] [µg/mL] | MIC P.aeruginosa in the presence of 4% bovine serum albumin [8] [µg/mL] | MIC S. maltophilia [9] [µg/mL] | MIC S. maltophilia in the presence of 4% bovine serum albumin [9] [µg/mL] | MIC A. baumannii [10] [µg/mL] | MIC A. baumannii in the presence of 4% bovine serum albumin [10] [µg/mL] | MIC K.pneumoniae [11] [µg/mL] | other results |
| --- | --- | --- | --- | --- | --- | --- | --- | --- | --- | --- | --- | --- | --- | --- | --- | --- | --- | --- | --- | --- | --- |
| CCCCCCCCCCCCCCCC(=O)N(CCCCNC(=N)N)CC(=O)N(CCCCNC(=N)N)CC(=O)N(CCCCNC(=N)N)CC(N)=O [C16-NhargNhargNharg] | 8 (≈ 10.4 µM) | 512 | 16 (≈ 20.9 µM) | 512 | 8 (≈ 10.4 µM) | 256 | 8 (≈ 10.4 µM) | 512 | 16 (≈ 20.9 µM) | 512 | 64 (≈ 83.5 µM) | 64 (≈ 83.5 µM) | >512 | 64 (≈ 83.5 µM) | >512 | 128 (≈ 167 µM) | >512 | 128 (≈ 167 µM) | >512 | 256 (≈ 334 µM) | MIC K.pneumoniae in the presence of 4% bovine serum albumin [11]: >512 µg/mL; Percent haemolysis at 100µg/mL of compound [12]: 30.80%; MIC E.coli [13]: 16 µg/mL (≈ 20.9 µM); MIC E.coli in the presence of 4% bovine serum albumin [13]: 512 µg/mL; MIC E.coli [14]: 32 µg/mL (≈ 41.8 µM); MIC E.coli in the presence of 4% bovine serum albumin [14]: 512 µg/mL; MIC E.coli [15]: 32 µg/mL (≈ 41.8 µM); MIC E.coli in the presence of 4% bovine serum albumin [15]: >512 µg/mL; MIC E. faecium [16]: 16 µg/mL (≈ 20.9 µM); MIC E. faecium in the presence of 4% bovine serum albumin [16]: 512 µg/mL |
| CCCCCCCCCCCCCC(=O)N(CCCCN)CC(=O)N(CCCCN)CC(=O)N(CCCCN)CC(N)=O [C14-NlysNlysNlys] | 32 (≈ 52.3 µM) | 512 | 64 (≈ 105 µM) | 512 | 32 (≈ 52.3 µM) | 512 | 16 (≈ 26.1 µM) | 512 | 64 (≈ 105 µM) | 512 | 128 (≈ 209 µM) | 512 (≈ 837 µM) | >512 | 512 (≈ 837 µM) | 512 | >512 | >512 | 512 (≈ 837 µM) | >512 | 512 (≈ 837 µM) | MIC S.pneumoniae in the presence of 4% bovine serum albumin [6]: >512 µg/mL; MIC K.pneumoniae in the presence of 4% bovine serum albumin [11]: >512 µg/mL; Percent haemolysis at 100µg/mL of compound [12]: 2.19%; MIC E.coli [13]: 128 µg/mL (≈ 209 µM); MIC E.coli in the presence of 4% bovine serum albumin [13]: >512 µg/mL; MIC E.coli [14]: 128 µg/mL (≈ 209 µM); MIC E.coli in the presence of 4% bovine serum albumin [14]: >512 µg/mL; MIC E.coli [15]: 128 µg/mL (≈ 209 µM); MIC E.coli in the presence of 4% bovine serum albumin [15]: >512 µg/mL; MIC E. faecium [16]: 64 µg/mL (≈ 105 µM); MIC E. faecium in the presence of 4% bovine serum albumin [16]: 512 µg/mL |

Reference: PMC3402541, “Guanidylation and Tail Effects in Cationic Antimicrobial Lipopeptoids” (PLoS ONE, 2012)
